According to PubChem BioAssay AID179 (DTP/NCI, 2004):
pEC50, pIC50: −log10 of the molar value. The source made the active and inactive calls.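 The calls were made as follows: active = compounds giving half or more protection of infected cells from virus-caused growth loss, again on retest; inactive = the rest.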

System: CEM cells HIV-1 protection, formazan growth assay
Test: NCI AIDS Antiviral Assay
Conditions: for pIC50: measured here: growth of uninfected CEM cells
Method in brief: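 Soluble formazan readout of cell growth; CEM cells ± HIV-1; 5 drug concs. ≥50% protection → retest; ≥50% again = moderately active; reproducible 100% = confirmed active.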

SMILES	pEC50	pIC50	outcome
NC(=O)C(NN=C1c2ccccc2-c2ccccc21)(c1ccccc1)c1ccccc1	< 3.70	4.55	
COC(=O)c1cc(C(=O)c2cc(C(=O)OC)c(OC)c(Br)c2C)c(C)c(Br)c1OC	< 3.70	< 3.70	
Cc1ccc(C)n1C1CCOC1=O (centres undefined)			inactive
CC1=C(C#N)C(=C(C#N)C#N)OC1(C)Cc1ccccc1 (centres undefined)	< 3.70	3.95	
O=Nc1ccc(O)c(Cl)c1	< 3.70	4.88	
CC1=C(C(=O)Nc2ccccc2)C(c2ccc(C)o2)C(C#N)=C(SCc2ccccc2)N1 (centres undefined)	< 3.70	4.62	
CC(=O)OCC1OC(N2C(c3ccccc3)=CC(c3cccs3)C(C#N)=C2S)C(OC(C)=O)C(OC(C)=O)C1OC(C)=O (centres undefined)	4.09	< 3.70	
CCOCCOCCOCOCCOCCOCC	< 3.70	< 3.70	
O=C1CCCC12CCOC2=O (centres undefined)	< 2.79	< 2.79	
CN(C)/C=C/C(=CC=[N+](C)C)/C=C/N(C)C			inactive
CC1=CC(=O)c2ccc3c4ccccc4n(C)c3c2C1=O	< 4.58	< 4.58	
CC1=CC(=O)CCC2(C)C1CC[C@@H]2OC=O (some centres undefined)			inactive
O=C(O)c1cccc(SS(=O)(=O)c2cccc(C(=O)O)c2)c1	4.56	3.79	
CCc1c(Cc2cc(C)cc(C)c2)n(COCCSc2ccccc2)c(=O)[nH]c1=O	6.31	4.81	
Cn1cnc([N+](=O)[O-])c1Sc1ncccn1	< 2.98	4.42	
Oc1ccc2ccccc2c1N=Nc1ccsc1	< 4.69	< 4.69	
CC(C)C1=C(Cc2ccccc2)C(=O)O/C1=C\c1cc(Cl)c(O)c(Cl)c1	< 3.70	4.49	
CC(C)(S)C(N)C(=O)O (centres undefined)	< 2.78	< 2.78	
COc1ccc(CCN2C(=O)CCC3=C2CCCC3=O)cc1OC	< 3.70	< 3.70	
CC(C)CCC[C@@H](C)[C@H]1CC[C@H]2[C@@H]3CCC4C[C@@H](CCC=C(c5cc(Cl)c(OCc6ccccc6C(=O)O)c(C(=O)O)c5)c5cc(Cl)c(OCc6ccccc6C(=O)O)c(C(=O)O)c5)CC[C@]4(C)[C@H]3CC[C@]12C (some centres undefined)	4.35	< 3.70	
COC1=CC(=O)[C@@]2(OC)C(=O)c3c(cc4cc(O)c(C(O)OC)c(C)c4c3O)C(=O)[C@@]2(O)C1OC1OC(C)C(OC)C(OC)C1OC (some centres undefined)	< 4.03	4.19	
COc1cc(CNc2nc3ccccc3n2Cc2ccccc2)cc(CN2CCOCC2)c1O	< 3.70	4.49	

SMILES	pEC50	pIC50	outcome
CC(C)(C)[Si](C)(C)OC1/C(=C/C#N)C(n2ccc(=O)[nH]c2=O)OC1CO (centres undefined)	< 3.70	< 3.70	
OC12C3C4CC5C(C4[C@@H]1Br)C2[C@@](O)(c1c(F)c(F)c(F)c(F)c1F)C53 (some centres undefined)	< 3.70	4.16	
Cc1c(CCCl)c(=O)n2c([nH]c3ccccc32)c1C#N	< 3.70	5.12	
O=S1c2ccccc2N=C(c2ccc(Cl)cc2)CC1c1cccs1 (centres undefined)	< 5.13	< 5.13	
[N-]=[N+]=NC1(Cc2ccccc2)C(=O)Nc2ccccc2C1=O (centres undefined)	< 3.70	3.98	
CN(C(=O)c1ccc(Cl)cc1)C(=S)N1CCN(c2ccccc2)CC1	< 4.71	< 4.71	
Nc1nc(Cl)cc(NCC2(CO)COC2)n1	< 3.70	< 3.70	
S=C1SC(=Nc2ccccc2)C(=Nc2ccccc2)N1c1ccc2ccccc2c1	< 3.70	4.85	
S=c1[nH]nc(COc2ccc(Cl)cc2)n1-c1ccccc1	< 3.70	4.51	
CCOc1csc([C@H]2CCC3[C@@H]4CC=C5C[C@@H](OC(=O)CCC(=O)O)CC[C@]5(C)C4CC[C@@]32C)n1 (some centres undefined)	< 4.30	4.47	
C/C(=N/Nc1ccc([N+](=O)[O-])cc1[N+](=O)[O-])C(CC(C(=O)Nc1ccccc1C)/C(C)=N\Nc1ccc([N+](=O)[O-])cc1[N+](=O)[O-])C(=O)Nc1ccccc1C (centres undefined)	< 5.02	< 5.02	
Cc1cc[n+](CC(=O)CC([O-])(C(F)(F)F)C(F)(F)F)cc1	< 3.70	< 3.70	
O=C(NC12CC3CC(CC(C3)C1)C2)C(=O)c1c[nH]c2ccccc12			inactive
O=C1CC2CCC(C1)S2	< 3.70	< 3.70	
COc1cccc(C(=O)O)c1Cc1cccc2ccccc12			inactive
O=C1/C(=C/c2cccc(Cl)c2)Cc2ccccc21	< 4.55	< 4.55	
CN(CC(=O)Nc1ccccc1C(=O)O)c1ccccc1	< 3.70	4.16	
O=C1OCC(Cc2ccc3c(c2)OCO3)[C@H]1Cc1ccc(O)cc1 (some centres undefined)	< 3.70	4.18	
C[Si](C)(C)/C(Br)=C\CCN1C(=O)CCC1O (centres undefined)			inactive
Nc1nc(Cl)n2nc[n+](C3C=CC(=O)CC3)c2n1 (centres undefined)			inactive
O=C(O)c1cccc(Nc2ccccc2C(=O)O)c1	< 3.29	< 3.29	
C=C(Br)CNC(=O)CCC(=O)NCC(=C)Br	< 3.70	< 3.70	

SMILES	pEC50	pIC50	outcome
N#Cc1ccccc1NC(=O)C(=O)C(C(=O)c1ccccc1F)C1OC(=O)c2ccccc21 (centres undefined)	< 3.95	4.79	
N#CC(c1cc2c(cc1Br)OCO2)N1CCOCC1 (centres undefined)	< 3.70	5.01	
Cc1cc(NS(=O)(=O)c2ccc(Nc3c4ccccc4nc4c(C(N)=O)cccc34)cc2)no1	< 3.70	4.97	
COc1ccc(OC)c(NC(=O)C(=O)C(C(=O)c2ccccc2F)C2OC(=O)c3ccccc32)c1 (centres undefined)	< 3.56	4.88	
CC(=O)Oc1c(C(C)C)cc2c(c1OC(C)=O)CC1(C)OC(=O)CC(C)(C)C1=CC2 (centres undefined)			inactive
O=C(O)CCC(=O)NCCNC(=O)CC(=O)O	< 3.00	< 3.00	
COc1cc(C2c3cc4c(cc3OC(N3CCCC3)C2C)OCO4)cc(OC)c1O (centres undefined)	< 3.70	5.22	
CCOC(=O)CSc1nc(-c2ccc(OC)cc2)c(C#N)c(=O)[nH]1	< 3.70	4.01	
Cc1ccc2c(c1)C(=S)N1CSCC1c1nncn1-2 (centres undefined)	< 3.70	< 3.70	
CCCN(CCC)CC(=O)Nc1cccc(Cl)c1C	< 3.70	4.20	
CN1C(=O)C[N+]([O-])=C(c2ccccc2)c2cc(Cl)ccc21	< 3.92	< 3.92	
CC(C)n1c(=O)c2nn3c(=O)n(C(C)C)c(=O)c3nn2c1=O	< 3.70	< 3.70	
Fc1cc(-c2ncc(Cl)cc2Cl)c2cccccc1-2	< 4.00	< 4.00	
CCOP(C)(=O)C(Nc1ccc(F)cc1)c1ccc(F)cc1 (centres undefined)	< 3.70	3.78	
CN1C2CCC1CC(C)(O)C2 (centres undefined)	< 3.70	< 3.70	
CC(=O)c1ccc2c(c1)oc(=O)n2CCN(C)C	< 3.70	3.85	
BrC12C3C4C5C(C(C43)C13OCCO3)C52 (centres undefined)	< 3.15	< 3.15	
C=C1CN(S(=O)(=O)c2ccc(C)cc2)CCCN(CC2CCCCC2)CCCN(S(=O)(=O)c2ccc(C)cc2)C1	< 4.33	5.93	
CO[C@H]1C[C@](C)(O)Cc2cc3c(c(O)c21)C(=O)c1c(O)cc2c(c1C3=O)O[C@@H]1O[C@@]2(C)[C@H](O)[C@@H](N(C)C)[C@@H]1O	< 5.16	7.33	
Nc1nc(N)c(C2=CCN(Cc3ccccc3)CC2)c(=O)[nH]1	< 3.70	< 3.70	
COc1cc(NCCN=C(N)NC#N)c2ncccc2c1	< 3.90	4.05	
NC1C(O)C(O)C(O)C(O)C1O (centres undefined)	< 2.14	< 2.14	

SMILES	pEC50	pIC50	outcome
CC(C)C1CC(CO)(CNc2nc(N)nc(Cl)c2C=O)C1 (centres undefined)	< 3.70	5.75	
N.N.N.N.N.O=C([O-])CCl.[Co+3].[O-][Cl+3]([O-])([O-])[O-]			inactive
CN(C)c1cccc2c1C(=O)C=CC21CCc2ccc(N(C)C)c3c(N(C)C)ccc1c23 (centres undefined)	< 3.70	5.06	
Cc1ccc(NC(=O)C2C(=O)N(c3ccc(C)c(C)c3)C(=O)/C2=N\NC(N)=O)cc1C (centres undefined)			inactive
CC(C)NCC1CCc2cc(CO)c([N+](=O)[O-])cc2N1 (centres undefined)	< 3.70	< 3.70	
CC(=Nc1ccc(Cl)c(Cl)c1)c1ccncc1			inactive
CC[C@]1(Cc2ccc(OC)c(OC)c2)C=[N+]([O-])O[C@H](OCc2ccccc2)[C@@H]1OC(C)=O	< 3.70	4.42	
CC(C)[Si](OC12CCC(CC1O)CC2CO)(C(C)C)C(C)C (centres undefined)	< 3.70	4.61	
CC(C)CCCC(C)[C@H]1CC[C@H]2[C@@H]3CC[C@H]4C[C@@H](CCC=C(c5cc(Cl)c(O)c(C(=O)O)c5)c5cc(Cl)c(O)c(C(=O)O)c5)CC[C@]4(C)[C@H]3CC[C@]12C (some centres undefined)	4.22	3.89	
c1cncc(CN2CCCCC2)c1			inactive
O=c1sc(Nc2ccc3ccccc3c2Cl)nc2ccccc12	< 3.70	< 3.70	
CC(=O)O[C@H]1CCC(C)=CCC[C@@]2(C)C(CC[C@@H]2[C@@H](C)/C=C/C(C)C)c2ccc(cc2C(=O)O)C1 (some centres undefined)			inactive
CO/N=C1/c2sccc2[C@H](NC(=O)C(F)(F)F)[C@@H]1O	< 3.70	< 3.70	
O=C(NC12CC3CC(CC(C3)C1)C2)C(=O)c1c[nH]c2ccc(Cl)cc12			inactive
COc1cc2nc(CCc3nc4cc(OC)c(OC)cc4[nH]3)[nH]c2cc1OC	< 4.77	4.91	
CC(C)(C)CC1=CC(=C2C=C(CC(C)(C)C)C(=O)C(CC(C)(C)C)=C2)C=C(CC(C)(C)C)C1=O	< 4.81	< 4.81	
C[C@H](N)C(O)C/C=C\CC(O)/C=C/C=C\C/C=C\C/C=C\C/C=C\CCCCCCC(O)[C@H](C)N (some centres undefined)			inactive
O=C1CC2(CCC(O)(c3ccco3)C(C(=O)c3ccco3)C2)C(=O)c2ccccc2N1 (centres undefined)	< 3.70	< 3.70	
CCCCCCCCCCCC[N+]12CC[N+](C)(CC1)CC2	< 3.60	4.83	
COc1ccc(/C(=N/NC(=O)NN)C(c2ccc(OC)cc2)C2(O)CNc3c(Cl)cc(Cl)cc32)cc1 (centres undefined)	< 5.01	< 5.01	
Cc1ccc(S(=O)(=O)N(CCN)c2cc3c4c(c2)Oc2cccc5c2C4c2c(cccc2O3)O5)cc1	< 3.70	4.45	
